Data on 15 compounds can be found in US20110182850A1, “ORGANIC COMPOUNDS AND THEIR USES” (priority 2009, published 2011).

The term IC50 denotes the concentration that gives 50% inhibition.

T1 sequence (P26664 1658-1711): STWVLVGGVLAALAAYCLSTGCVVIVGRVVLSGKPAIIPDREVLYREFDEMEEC
T1 sequence (P26664 1027-1657): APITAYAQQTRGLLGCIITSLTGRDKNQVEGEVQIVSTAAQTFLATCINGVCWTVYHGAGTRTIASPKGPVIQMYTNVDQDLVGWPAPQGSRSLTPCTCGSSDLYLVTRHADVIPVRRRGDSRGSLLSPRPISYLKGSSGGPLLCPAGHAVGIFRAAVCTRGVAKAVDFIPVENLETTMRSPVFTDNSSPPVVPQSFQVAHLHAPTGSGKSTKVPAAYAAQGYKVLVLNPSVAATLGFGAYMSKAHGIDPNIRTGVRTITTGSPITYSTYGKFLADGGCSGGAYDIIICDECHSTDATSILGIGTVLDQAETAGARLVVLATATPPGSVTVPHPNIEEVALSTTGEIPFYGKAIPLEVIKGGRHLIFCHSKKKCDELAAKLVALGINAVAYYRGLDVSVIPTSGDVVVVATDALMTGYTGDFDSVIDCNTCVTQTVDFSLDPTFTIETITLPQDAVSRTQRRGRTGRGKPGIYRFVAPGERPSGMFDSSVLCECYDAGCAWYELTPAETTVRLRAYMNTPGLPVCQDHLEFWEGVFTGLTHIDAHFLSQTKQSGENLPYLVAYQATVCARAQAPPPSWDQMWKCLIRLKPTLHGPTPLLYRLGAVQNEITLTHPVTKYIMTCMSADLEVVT

The first assay has as its target T1, HCV NS3-4A serine protease (full-length NS3-4A protein, genotype 1a, strain HCV-1) (Hepatitis C virus genotype 1a, UniProt P26664).
T1 construct: using the full-length NS3-4A protein (genotype 1a, strain HCV-1)
In words: HCV NS3-4A protease assay. The settings on record: Protease IC50. It is filed as biochemical. The method, then: The inhibitory activity of certain compounds of Table A against HCV NS3-4A serine protease is determined in a homogenous assay using the full-length NS3-4A protein (genotype 1a, strain HCV-1) and a commercially available internally-quenched fluorogenic peptide substrate as described by Taliani, M., et al. 1996 Anal. Biochem. 240:60-67, which is incorporated by reference in its entirety.
`C=C[C@@H]1C[C@]1(NC(=O)[C@@H]1C[C@@]2(CN1C(=O)[C@@H](NC(=O)[C@@H](NC(=O)c1ccc[nH]1)C1CCCCC1)C(C)(C)C)C(C)(C)C21CCC1)C(=O)NS(=O)(=O)C1CC1` [Compound 114, (5R,8S)-7-[(2S)-2-({(2S)-2-cyclohexyl-2-[(1H-pyrrol-2-ylcarbonyl)amino]acetyl}amino)-3,3-dimethylbutanoyl]-N-{(1R,2S)-1-[(cyclopropylsulfonyl)carba-moyl]-2-vinylcyclopropyl}-10,10-dimethyl-7-azadispiro[3.0.4.1]decane-8-carboxamide] displayed a concentration for half-maximal inhibition (IC50) of 0.7 nM.
For the compound `C=C[C@@H]1C[C@]1(NC(=O)[C@@H]1C[C@@]2(CN1C(=O)[C@@H](NC(=O)[C@@H](NC(=O)[C@@H]1CCCCN1CCF)C(C)(C)C)C(C)(C)C)C(C)(C)C21CCC1)C(=O)NS(=O)(=O)c1cccc2cc[nH]c12` [Compound 14, (5R,8S)-7-[(2S)-2-{[(2S)-2-({[(2S)-1-(2-fluoroethyl)piperidin-2-yl]carbonyl}amino)-3,3-dimethylbutanoyl]amino}-3,3-dimethylbutanoyl]-N-{(1R,2S)-1-[(1H-indol-7-ylsulfonyl)carbamoyl]-2-vinylcyclopropyl}-10,10-dimethyl-7-azadispiro[3.0.4.1]decane-8-carboxamide], half-maximal inhibition (IC50) was put at 6.5 nM.
For the compound `C=C[C@H]1C[C@@]1(NC(=O)[C@@H]1C[C@@]2(CN1C(=O)[C@@H](NC(=O)[C@@H](NC(=O)C(C)(C)N1CCN(C(C)(C)C)CC1)C1CCCCC1)C(C)(C)C)C(C)(C)C21CCC1)C(=O)NS(=O)(=O)C1CC1` [Compound 102, (5R,8S)-7-[(2S)-2-{[{[2-(4-tert-butylpiperazin-1-yl)-2-methylpropanoyl]amino}(cyclo-hexyl)acetyl]amino}-3,3-dimethylbutanoyl]-N-{(1R,2S)-1-[(cyclopropylsulfonyl)carba-moyl]-2-vinylcyclopropyl}-10,10-dimethyl-7-azadispiro[3.0.4.1]decane-8-carboxamide], the IC50 came to 1 nM.
With `C=C[C@@H]1C[C@]1(NC(=O)[C@@H]1C[C@@]2(CN1C(=O)[C@@H](NC(=O)[C@@H](NC(=O)c1ccncn1)C1CCCCC1)C(C)(C)C)C(C)(C)C21CCC1)C(=O)NS(=O)(=O)C1CC1` [Compound 115, (5R,8S)-7-[(2S)-2-({(2S)-2-cyclohexyl-2-[(pyrimidin-4-ylcarbonyl)amino]acetyl}amino)-3,3-dimethylbutanoyl]-N-{(1R,2S)-1-[(cyclopropylsulfonyl)carba-moyl]-2-vinylcyclopropyl}-10,10-dimethyl-7-azadispiro[3.0.4.1]decane-8-carboxamide], the IC50 was 0.6 nM.
With `C=C[C@@H]1C[C@]1(NC(=O)[C@@H]1C[C@@]2(CN1C(=O)[C@@H](NC(=O)[C@@H](NC(=O)[C@@H]1CCCCN1CCF)C(C)(C)C)C(C)(C)C)C(C)(C)C21CCC1)C(=O)NS(=O)(=O)C1CC1` [Compound 9, (5R,8S)-N-{(1R,2S)-1-[(cyclopropylsulfonyl)carba-moyl]-2-vinylcyclopropyl}-7-[(2S)-2-{[(2S)-2-({[(2S)-1-(2-fluoroethyl)piperidin-2-yl]carbonyl}amino)-3,3-dimethylbutanoyl]amino}-3,3-dimethylbutanoyl]-10,10-dimethyl-7-azadispiro[3.0.4.1]decane-8-carboxamide], half-maximal inhibition (IC50) was put at 8 nM.
`C=C[C@@H]1C[C@]1(NC(=O)[C@@H]1C[C@@]2(CN1C(=O)[C@@H](NC(=O)[C@@H](NC(=O)[C@@H]1CCCCN1C(C)C)C(C)(C)CC)C(C)(C)C)C(C)(C)C21CCC1)C(=O)NS(=O)(=O)C1CC1` [Compound 36, (5R,8S)-N-{(1R,2S)-1-[(cyclopropylsulfonyl)carba-moyl]-2-vinylcyclopropyl}-7-[(2S)-2-{[(2S)-2-({[(2S)-1-isopropylpiperidin-2-yl]carbonyl}amino)-3,3-dimethylpentanoyl]amino}-3,3-dimethylbutanoyl]-10,10-dimethyl-7-azadispiro[3.0.4.1]decane-8-carboxamide] came in with an IC50 of 1 nM.
Still for that read-out and setting: the same measure for `C=C[C@@H]1C[C@]1(NC(=O)[C@@H]1C[C@@]2(CN1C(=O)[C@@H](NC(=O)[C@@H](NC(=O)c1cnccn1)C1CCCCC1)C(C)(C)C)C(C)(C)C21CCC1)C(=O)NS(=O)(=O)C1(C)CC1` [Compound 64, (5R,8S)-7-[(2S)-2-({(2S)-2-cyclohexyl-2-[(pyrazin-2-ylcarbonyl)amino]acetyl}amino)-3,3-dimethylbutanoyl]-10,10-dimethyl-N-[(1R,2S)-1-{[(1-methylcyclopropyl)sulfonyl]carbamoyl}-2-vinylcyclopropyl]-7-azadispiro[3.0.4.1]decane-8-carboxamide]: 1.5 nM; for `C=C[C@@H]1C[C@]1(NC(=O)[C@@H]1C[C@@]2(CN1C(=O)[C@@H](NC(=O)[C@@H](NC(=O)c1cc(C(C)C)n[nH]1)C(C)(C)C)C(C)(C)C)C(C)(C)C21CCC1)C(=O)NS(=O)(=O)C1CC1` [Compound 39, (5R,8S)-N-{(1R,2S)-1-[(cyclopropylsulfonyl)carba-moyl]-2-vinylcyclopropyl}-7-[(2S)-2-{[(2S)-2-{[(3-isopropyl-1H-pyrazol-5-yl)carbonyl]amino}-3,3-dimethylbutanoyl]amino}-3,3-dimethylbutanoyl]-10,10-dimethyl-7-azadispiro[3.0.4.1]decane-8-carboxamide]: 6 nM; for `C=C[C@@H]1C[C@]1(NC(=O)[C@@H]1C[C@@]2(CN1C(=O)[C@@H](NC(=O)[C@@H](NC(=O)[C@@H]1CCCCN1C(C)C)C(C)(C)C)C(C)(C)C)C(C)(C)C21CCC1)C(=O)NS(=O)(=O)Cc1ccccc1` [Compound 22, (5R,8S)-N-{(1R,2S)-1-[(benzylsulfonyl)carbamoyl]-2-vinylcyclopropyl}-7-[(2S)-2-{[(2S)-2-({[(2S)-1-isopropylpiperidin-2-yl]carbonyl}amino)-3,3-dimethylbutanoyl]amino}-3,3-dimethylbutanoyl]-10,10-dimethyl-7-azadispiro[3.0.4.1]decane-8-carboxamide]: 14 nM.
`C=C[C@@H]1C[C@]1(NC(=O)[C@@H]1C[C@@]2(CN1C(=O)[C@@H](NC(=O)[C@@H](NC(=O)c1nc3ccccc3[nH]1)C(C)(C)C)C(C)(C)C)C(C)(C)C21CCC1)C(=O)NS(=O)(=O)C1CC1` [Compound 120, (5R,8S)-7-[(2S)-2-({(2S)-2-[(1H-benzimidazol-2-ylcarbonyl)amino]-3,3-dimethylbutanoyl}amino)-3,3-dimethylbutanoyl]-N-{(1R,2S)-1-[(cyclopropylsulfonyl)carba-moyl]-2-vinylcyclopropyl}-10,10-dimethyl-7-azadispiro[3.0.4.1]decane-8-carboxamide] came in with an IC50 of 0.7 nM.
On the same count and under the same terms, the same measure for `C=C[C@H]1C[C@@]1(NC(=O)[C@@H]1C[C@@]2(CN1C(=O)[C@@H](NC(=O)[C@@H](NC(=O)C1CNC(=O)C1)C1CCCCC1)C(C)(C)C)C(C)(C)C21CCC1)C(=O)NS(=O)(=O)C1CC1` (stereo partly drawn) [Compound 109, (5R,8S)-7-{(2S)-2-[(cyclohexyl{[(5-oxopyrrolidin-3-yl)carbonyl]amino}acetyl)amino]-3,3-dimethylbutanoyl}-N-{(1R,2S)-1-[(cyclopropylsulfonyl)carba-moyl]-2-vinylcyclopropyl}-10,10-dimethyl-7-azadispiro[3.0.4.1]decane-8-carboxamide]: 0.6 nM.
The same measure, in the same setting: the same measure for `C=C[C@H]1C[C@@]1(NC(=O)[C@@H]1C[C@@]2(CN1C(=O)[C@@H](NC(=O)[C@@H](NC(=O)c1ncc[nH]1)C1CCCCC1)C(C)(C)C)C(C)(C)C21CCC1)C(=O)NS(=O)(=O)C1CC1` [Compound 105, (5R,8S)-7-[(2S)-2-({cyclohexyl[(1H-imidazol-2-ylcarbonyl)amino]acetyl}amino)-3,3-dimethylbutanoyl]-N-{(1R,2S)-1-[(cyclopropylsulfonyl)carba-moyl]-2-vinylcyclopropyl}-10,10-dimethyl-7-azadispiro[3.0.4.1]decane-8-carboxamide]: 0.9 nM; for `C=C[C@@H]1C[C@]1(NC(=O)[C@@H]1C[C@@]2(CN1C(=O)[C@@H](NC(=O)[C@@H](NC(=O)[C@@H]1CCCN1C(C)C)C(C)(C)C)C(C)(C)C)C(C)(C)C21CCC1)C(=O)NS(=O)(=O)C1CC1` [Compound 141, (5R,8S)-N-{(1R,2S)-1-[(cyclopropylsulfonyl)carba-moyl]-2-vinylcyclopropyl}-7-[(2S)-2-{[(2S)-2-({[(2S)-1-isopropylpyrrolidin-2-yl]carbonyl}amino)-3,3-dimethylbutanoyl]amino}-3,3-dimethylbutanoyl]-10,10-dimethyl-7-azadispiro[3.0.4.1]decane-8-carboxamide]: 2 nM.

The same assay, now with this note: read-out: Protease IC50.
“(5R,8S)-7-{(2S)-2- [(cyclohexyl{[(1- methylcyclohexyl)carbonyl] amino}acetyl)amino]-3,3- dimethylbutanoyl}-N- {(1R,2S)-1- [(cyclopropylsulfonyl)carba- moyl]-2-vinylcyclopropyl}- 10,10-dimethyl-7- azadispiro[3.0.4.1]decane-8- carboxamide [Compound 128]”: the IC50 was found to be 5 nM.
As for `C=C[C@@H]1C[C@]1(NC(=O)[C@@H]1C[C@@]2(CN1C(=O)[C@@H](NC(=O)[C@@H](NS(=O)(=O)N(C)C)C(C)(C)C)C(C)(C)C)C(C)(C)C21CCC1)C(=O)NS(=O)(=O)C1CC1` [Compound 48, (5R,8S)-N-{(1R,2S)-1-[(cyclopropylsulfonyl)carba-moyl]-2-vinylcyclopropyl}-7-[(2S)-2-{[(2S)-2-{[(dimethylamino)sulfonyl]amino}-3,3-dimethylbutanoyl]amino}-3,3-dimethylbutanoyl]-10,10-dimethyl-7-azadispiro[3.0.4.1]decane-8-carboxamide], the IC50 amounted to 95 nM.
